In paper PMC4076210, “Discovery of Novel AKT Inhibitors with Enhanced Anti-Tumor Effects in Combination with the MEK Inhibitor” (PLoS ONE, 2014):

Tested on: solid tumor cell lines
Assay: 3-day proliferation assay (CellTiter-Glo)
Type: cell-based, human
Details: for IC50: Homo sapiens
Protocol: Various tumor cell lines were obtained from different sources including; the American Type Cell Culture Collection, the Developmental Therapeutics Program, the National Cancer Institute, the German Resource Center for Biological Material and the European Collection of Animal Cell Cultures. Cell lines were typically grown in […] containing 10% FBS. Some cell lines were grown in media specified by the vendor. A 3-day proliferation assay using CellTiter-Glo (CTG, Promega) was performed to measure the growth inhibition by the compounds at 0–30 µM. Cell growth was determined relative to untreated (DMSO) controls. EC50's were calculated from inhibition curves using a 4- or 6-parameter fitting algorithm in the Assay Client application.

## Cn1ncc(Cl)c1-c1cc(C(=O)N[C@H](CN)Cc2ccc(F)c(F)c2)oc1Cl [GSK2141795]
178 cell lines, 3 days, CTG
  solid tumor cell lines with EC50<1 µM: 36%
22Rv1, 22Rv1, Prostate
  IC50: 0.244 µM
647-V, 647V, Bladder
  IC50: 7.55 µM
786-0, 786-O, Kidney
  IC50: 0.577 µM
A 172, A172, Brain
  IC50: 5.7 µM
A204, A204, Sarcoma
  IC50: 1.06 µM
A549, A549, Lung
  IC50: 1.54 µM
A673, A673, Sarcoma
  IC50: 3.41 µM
A2780, A2780, Ovary
  IC50: 2.31 µM
A-375, A375, Skin
  IC50: 13.8 µM
A-427, A427, Lung
  IC50: 1.96 µM
ACHN, Kidney
  IC50: 1.48 µM
AGS, Stomach
  IC50: 0.491 µM
BE(2)-C, BE2C, Neuroblastoma
  IC50: 0.664 µM
BFTC-905, BFTC905, Bladder
  IC50: 1.38 µM
BT-20, BT20, Breast
  IC50: 0.079 µM
BXPC-3, BXPC3, Pancreas
  IC50: 17.2 µM
C3A, Liver
  IC50: 0.966 µM
C32TG, Skin
  IC50: 0.537 µM
C-33-A, C-33A, Cervix
  IC50: 0.238 µM
C-41, Cervix
  IC50: 15.5 µM
CAL-27, CAL27, Head & Neck
  IC50: 6.59 µM
CAL-62, CAL62, Thyroid
  IC50: 8.05 µM
CCF-STTG1, CCFSTTG1, Brain
  IC50: 0.164 µM
CGTH-W-1, CGTHW1, Thyroid
  IC50: 2.1 µM
CHL-1, CHL1, Skin
  IC50: 3.04 µM
CHP-212, CHP212, Neuroblastoma
  IC50: 0.595 µM
COLO 205, COLO205, Colon
  IC50: 3.68 µM
COLO 320DM, COLO320DM, Colon
  IC50: 0.698 µM
COLO 704, COLO704, Ovary
  IC50: 0.104 µM
COR-L23, CORL23, Lung
  IC50: 5.51 µM
Calu-3, CALU3, Lung
  IC50: 0.85 µM
Calu-6, CALU6, Lung
  IC50: 3.72 µM
Caov-3, CAOV3, Ovary
  IC50: 4.23 µM
Capan-2, Capan2, Pancreas
  IC50: 4.23 µM
DBTRG-05MG, DBTRG05MG, Brain
  IC50: 3.69 µM
DKMG, Brain
  IC50: 0.946 µM
DLD-1, DLD1, Colon
  IC50: 5.92 µM
DU-145, DU145, Prostate
  IC50: 3.46 µM
DU-4475, DU4475, Breast
  IC50: 1.76 µM
DoTc2-4510, DoTc24510, Cervix
  IC50: 1.38 µM
EFM-19, EFM19, Breast
  IC50: 0.049 µM
EKVX, Lung
  IC50: 3.91 µM
ES2, Ovary
  IC50: 1.75 µM
FaDu, Head & Neck
  IC50: 9.18 µM
G-401, G401, Head & Neck
  IC50: 0.473 µM
GCT, Sarcoma
  IC50: 3.2 µM
H4, Brain
  IC50: 1.63 µM
HCC70, HCC70, Breast
  IC50: 0.038 µM
HCC1954, HCC1954, Breast
  IC50: 0.117 µM
HCC 2998, HCC2998, Colon
  IC50: 1.4 µM
HCT-116, HCT116, Colon
  IC50: 3.99 µM
HMCB, Skin
  IC50: 2.83 µM
HN5, Head & Neck
  IC50: 1.99 µM
HOS, Sarcoma
  IC50: 1.18 µM
HPAF-II, HPAFII, Pancreas
  IC50: 4.33 µM
HT3, Cervix
  IC50: 1.45 µM
HT-29, HT29, Colon
  IC50: 1.03 µM
HT-1080, HT1080, Sarcoma
  IC50: 3.46 µM
HUVEC, Normal Endothelial
  IC50: 3.18 µM
HeLa, Cervix
  IC50: 5.72 µM
Hep3B, Liver
  IC50: 0.154 µM
Hs746T, Stomach
  IC50: 1.09 µM
IGROV-1, IGROV1, Ovary
  IC50: 0.021 µM
J82, Bladder
  IC50: 0.783 µM
KATO III, KATOIII, Stomach
  IC50: 0.255 µM
KHOS-240S, KHOS240S, Sarcoma
  IC50: 7.4 µM
KM12, KM12, Colon
  IC50: 3.27 µM
KPL-1, KPL1, Breast
  IC50: 1.39 µM
KYSE-30, KYSE30, Oesophagus
  IC50: 3.21 µM
LNCaP, Prostate
  IC50: 0.057 µM
LS174T, Colon
  IC50: 1.36 µM
LS-1034, LS1034, Colon
  IC50: 1.64 µM
M14, Skin
  IC50: 1.88 µM
MC-IXC, MCIXC, Neuroblastoma
  IC50: 0.282 µM
MCF7, MCF7, Breast
  IC50: 0.139 µM
MCF-10A, MCF10A, Normal Breast
  IC50: 0.528 µM
MDA-MB-175-VII, MDAMB175-VII, Breast
  IC50: 0.086 µM
MDA-MB-231, MDAMB231, Breast
  IC50: 7.62 µM
MDA-MB-453, MDAMB453, Breast
  IC50: 0.474 µM
MDA-MB-468, MDAMB468, Breast
  IC50: 0.369 µM
MES-SA, MESSA, Sarcoma
  IC50: 0.342 µM
MIA PaCa-2, MiaPaCa, Pancreas
  IC50: 0.871 µM
NCI-H69, NCIH69, Lung
  IC50: 0.648 µM
NCI-H82, NCIH82, Lung
  IC50: 15.1 µM
NCI-H146, NCIH146, Lung
  IC50: 7.77 µM
NCI-H157, NCIH157, Lung
  IC50: 1.34 µM
NCI-H187, NCIH187, Lung
  IC50: 0.115 µM
NCI-H209, NCI-H209, Lung
  IC50: 0.853 µM
NCI-H226, NCIH226, Lung
  IC50: 2.75 µM
NCI-H292, NCIH292, Lung
  IC50: 2.87 µM
NCI-H322, NCIH322, Lung
  IC50: 4.71 µM
NCI-H358, NCI-H358, Lung
  IC50: 0.635 µM
NCI-H446, NCIH446, Lung
  IC50: 0.256 µM
NCI-H460, NCIH460, Lung
  IC50: 1.94 µM
NCI-H508, NCIH508, Lung
  IC50: 0.159 µM
NCI-H520, NCIH520, Lung
  IC50: 0.2 µM
NCI-H630, NCIH630, Lung
  IC50: 3.08 µM
NCI-H661, NCIH661, Lung
  IC50: 3.3 µM
NCI-H716, NCIH716, Colon
  IC50: 1.64 µM
NCI-H747, NCIH747, Lung
  IC50: 0.474 µM
NCI-H1563, NCIH1563, Lung
  IC50: 0.14 µM
NCI-H1792, NCIH1792, Lung
  IC50: 2.84 µM
NCI-H2030, NCIH2030, Lung
  IC50: 3.16 µM
NCI-H2052, NCIH2052, Lung
  IC50: 1.59 µM
NCI-H2081, NCIH2081, Lung
  IC50: 0.507 µM
NCI-H2122, NCIH2122, Lung
  IC50: 1.91 µM
NCI-H2170, NCI-H2170, Lung
  IC50: 3.19 µM
NCI-H2228, NCIH2228, Lung
  IC50: 0.409 µM
NCI-N87, NCIN87, Stomach
  IC50: 0.568 µM
NCI/ADR-RES, NCIADRRES, Breast
  IC50: 8.01 µM
OE19, OE19, Oesophagus
  IC50: 2.28 µM
OE21, OE21, Oesophagus
  IC50: 0.111 µM
OE33, OE33, Oesophagus
  IC50: 4.28 µM
OV-90, OV90, Ovary
  IC50: 2.08 µM
OVCAR-3, OVCAR3, Ovary
  IC50: 3.15 µM
OVCAR-4, OVCAR4, Ovary
  IC50: 29.3 µM
OVCAR-5, OVCAR5, Ovary
  IC50: 5.27 µM
PANC-1, Panc1, Pancreas
  IC50: 2.22 µM
PC3, Prostate
  IC50: 1.39 µM
PL45, PL45, Pancreas
  IC50: 6.1 µM
Panc 02.03, Panc02.03, Pancreas
  IC50: 10.7 µM
RD, Sarcoma
  IC50: 6.29 µM
RD-ES, RDES, Sarcoma
  IC50: 0.808 µM
RKO, Colon
  IC50: 0.676 µM
SAOS-2, SAOS2, Sarcoma
  IC50: 2.37 µM
SCC12, SCC12, Head & Neck
  IC50: 1.29 µM
SCC-9, SCC9, Head & Neck
  IC50: 2.39 µM
SCC-13, SCC-13, Head & Neck
  IC50: 23.7 µM
SCC-15, SCC15, Head & Neck
  IC50: 1.98 µM
SCC-25, SCC-25, Head & Neck
  IC50: 2.48 µM
SCLC3, Lung
  IC50: 0.054 µM
SF-295, SF295, Brain
  IC50: 0.373 µM
SF-539, SF539, Brain
  IC50: 0.388 µM
SH4, Skin
  IC50: 5.53 µM
SHP77, SHP77, Lung
  IC50: 3.1 µM
SJRH30, SJRH30, Sarcoma
  IC50: 0.284 µM
SK-BR-3, SKBR3, Breast
  IC50: 0.096 µM
SK-LMS-1, SKLMS1, Sarcoma
  IC50: 5.87 µM
SK-MEL-1, SKMEL1, Skin
  IC50: 2.5 µM
SK-MEL-28, SKMEL28, Skin
  IC50: 1.61 µM
SK-MES-1, SKMES-1, Lung
  IC50: 2.19 µM
SK-N-AS, SKNAS, Neuroblastoma
  IC50: 3.4 µM
SK-OV-3, SKOV3, Ovary
  IC50: 0.435 µM
SK-UT-1, SKUT1, Sarcoma
  IC50: 0.202 µM
SKNF1, Neuroblastoma
  IC50: 0.239 µM
SN12C, Kidney
  IC50: 11.3 µM
SNB-75, SNB75, Brain
  IC50: 0.449 µM
SNU1, SNU1, Stomach
  IC50: 1.42 µM
SNU-5, SNU5, Stomach
  IC50: 7.81 µM
SNU-16, SNU16, Stomach
  IC50: 7.21 µM
SNU-398, SNU398, Liver
  IC50: 13.5 µM
SNU-449, SNU449, Liver
  IC50: 6.05 µM
SW48, SW48, Colon
  IC50: 0.328 µM
SW480, SW480, Colon
  IC50: 10.3 µM
SW579, SW579, Thyroid
  IC50: 0.957 µM
SW684, SW684, Sarcoma
  IC50: 0.336 µM
SW756, SW756, Cervix
  IC50: 8.29 µM
SW780, SW780, Bladder
  IC50: 4.96 µM
SW872, SW872, Sarcoma
  IC50: 0.289 µM
SW900, SW900, Lung
  IC50: 8.22 µM
SW1088, SW1088, Brain
  IC50: 0.532 µM
SW1417, SW1417, Colon
  IC50: 1.36 µM
SW1783, SW1783, Brain
  IC50: 0.182 µM
SW1990, SW1990, Pancreas
  IC50: 9.15 µM
Skut1B, Sarcoma
  IC50: 0.01 µM
T47D, T-47D, Breast
  IC50: 0.063 µM
T84, Colon
  IC50: 2.24 µM
TE 381.T, TE381T, Sarcoma
  IC50: 0.834 µM
TK-10, TK10, Kidney
  IC50: 3.33 µM
U20S, Sarcoma
  IC50: 23.2 µM
U138-MG, U138MG, Brain
  IC50: 1.16 µM
U-87 MG, U87MG, Brain
  IC50: 3.31 µM
U-251, U251, Brain
  IC50: 1.23 µM
UACC-62, UACC62, Skin
  IC50: 1.23 µM
UACC-257, UACC257, Skin
  IC50: 2.99 µM
UMUC3, UMUC3, Bladder
  IC50: 5.83 µM
YAPC, Pancreas
  IC50: 10.3 µM
ZR-75-1, ZR75-1, Breast
  IC50: 0.033 µM
